The source of these data is patent US20060002870A1 (priority 2004, published 2006).

For this experiment, the system named is skin. As to the kind of experiment: Clinical study of intensity and tonality of self-tanning with merospheres, empty liposomes and ursolic acid (Chromameter, forearms). The format is in vivo, human. Particulars: added to 3% DHA, 5% pentylene glycol; 5 hours and 24 hours; FIG. 7. On the procedure:
This clinical study is designed to investigate the intensity and tonality of self-tanning with a formulation containing different combination of merospheres, empty liposomes and ursolic acid. The following materials are tested: A total of […] panelists participate in the study. The panel is divided in seven groups of 7-8 corresponding to the seven test materials. The panelists apply the “control” formulation containing 3% DHA-PG on the right arm and the assigned test material on the other arm. For each panelist exact amounts (800 μl each) of the test materials are dispensed on the forearms and blended in by the panelists. Color measurements are obtained with the Chromameter before treatment and 5 hours and 24 hours. Decrease in reflectance and increase in red coloration and yellow coloration (ΔL*, Δa* and Δb* values) obtained from the Chromameter are calculated as compared to baseline skin color. Total color change ΔE* is calculated for each time point as follows: ΔE*={overscore (V(ΔL*)^2+(Δa*)^2+(Δb)}*)^2 For assessing the tonality, Chroma (ΔC*) is calculated and plotted against reflectance (ΔL* values) within the “Natural Universe of Tan”. This Natural Universe is the range of color of tan obtained by multiple or single exposures to the sun.

On to `C[C@H]1[C@H](C)CC[C@]2(C(=O)O)CC[C@]3(C)C(=CC[C@@H]4[C@@]5(C)CC[C@H](O)C(C)(C)[C@@H]5CC[C@]43C)[C@H]12` [ursolic acid], for which the “Self-tanning effect (ΔE*)” value is on record as “neither addition of empty liposomes nor ursolic acid alone changes the self-tanning effect”.
